Test results from US12396995B2, “Substituted 4-aminoisoindoline-1,3-dione compounds and second active agents for combined use” (Celgene Corporation, priority 2019, dated 2025).

Tests used:
[1] = tested on: cell lines from hematological malignancies; test: Cell Titer Glo proliferation, Compound 1 in combination with second active agents; format: cell-based; details: very sensitive cell lines such as JJN-3, SU-DHL2 or SU-DHL10; combined with Compound 1
Method: Cell Lines/Cells: Activated B-Cell (ABC) cell lines: TMD-8, SU-DHL-2, OCI-Ly10, RIVA, U2932; and Germinal Center B-cell (GCB) cell lines: SU-DHL10, Pfeiffer, WSU-DLCL2, SU-DHL4, DB; myeloma cell lines: H929, JJN3 and SK-MM1; acute myeloid leukemia cell line: HNT-34; acute lymphocytic leukemia cell line: Karpas-231; other lymphoma cell lines: Daudi, Karpas-299, HuT-102, L-428.
Alternatively, combination compound solutions were serially diluted from 5 μM starting concentration and serially diluted 6-fold for a 6-point dilution curve. […] Cells were added to each well and cultured for 3 days. […] For some other epigenetic agents (EPZ5676, C646, OICR-9429, ACY-241, GSK3484862, Compound C, UNC 0631, GSK3326595, LP99, A-196, CARM1 EZM2302) cells were cultured for 5 days due to their mechanism of action.
Plates were either made at a concentration of 10 μM or 1 μM diluted 3-fold for a 10-point dilution curve, with a final DMSO concentration of 0.2%. All cell line solutions were diluted to a concentration of 100,000 cells/mL and added to each well in a volume of 50 μL, with the exception of SU-DHL-6 solution, which was diluted to 25,000 cells/mL. At the end of the treatment period cells were lysed with Cell Titer Glo (CTG) reagents following manufacture recommendation. Luminescent signal was read using an Envision and data was normalized by DMSO for data analysis.
Data Analysis: The combination effect was analyzed by combining results from Highest Single Agent (HSA) and Bliss Independency methods. See, e.g., Foucquier J, Guedj M., Analysis of drug combinations: current methodological landscape. Pharmacol Res Perspect. 2015; 3(3):e00149. doi:10.1002/prp2.149.
Combined results of HSA and Bliss scores were used to define synergistic and additive effect of the combinations.

[2] = tested on: WSU-DLCL2 DLBCL xenograft tumors; test: WSU-DLCL2 (DLBCL) xenograft model, Compound 1 alone and with tazemetostat; format: in vivo, female SCID mice; details: single agent tazemetostat 200 mg/kg oral BID, three weeks
Method: (§1) Anti-tumor activity of Compound 1 alone and in combination with tazemetostat was studied in WSU-DLCL2 (DLBCL) xenograft model. Compound 1 (1 mg/kg) was administered once daily for 5 consecutive days followed by 2 days off (5 D on/2 D off) and tazemetostat (200 mg/kg) was administered twice daily (BID).
(§2) Methods: Xenograft study was conducted with female SCID mice bearing WSU-DLCL2 DLBCL xenograft tumors. Female SCID mice were inoculated subcutaneously with WSU-DLCL2 cells in the flank region above the right hind leg. Following inoculation of animals, the tumors were allowed to grow to approximately 200 mm^3 prior to randomization. On day 14 following tumor cell inoculation, the mice bearing WSU-DLCL2 tumors ranging between 150 and 250 mm^3 were pooled together and randomized into various treatment groups. Compound 1 was formulated in 0.5% Methyl Cellulose, 0.25% Tween 80 and 50 mM Citrate pH 3 in water. Tazemetostat was formulated in CMC-Tween. Compound 1 (1 mg/kg) was orally administered with three cycles of once daily for 5 consecutive days followed by 2 days off starting from day 14 after tumor cell inoculation. Tazemetostat 200 mg/kg) was orally administered twice day (BID) for three weeks. In combination group the animals received Compound 1 (1 mg/kg/5 D on/2 D off) and tazemetostat (200 mg/kg, BID) simultaneously for three weeks starting from day 14 after tumor cell inoculation. Tumors were measured twice a week using calipers and tumor volumes were calculated using the formula of W^2×L/2. Statistical analysis was performed using a one-way or 2-way analysis of variance (ANOVA). Synergy calculations were performed using fractional product method.

[3] = tested on: DB DLBCL xenograft tumors; test: DB (DLBCL) xenograft model, Compound 1 alone and with tazemetostat; format: in vivo, female SCID mice; details: single agent tazemetostat 200 mg/kg oral BID, three weeks
Method: as §1, with “DB” for “WSU-DLCL2”, “(3, 10 or 30” for “(1”
as §2, with “bearing DB” for “bearing WSU-DLCL2”, “with DB” for “with WSU-DLCL2”, “day 33” for “day 14”, “1 (3, 10 or 30” for “1 (1”, “Tazemetostat (200” for “Tazemetostat 200”, “1 (3, 10 or 30 mg/kg, 5” for “1 (1 mg/kg/5”

COc1cc(Nc2ncc3c(n2)-c2ccc(Cl)cc2C(c2c(F)cccc2OC)=NC3)ccc1C(=O)O [alisertib, 4-((9-chloro-7-(2-fluoro-6-methoxyphenyl)-5H-benzo[c]pyrimido[4,5-e]azepin-2-yl)amino)-2-methoxybenzoic acid]
effect on proliferation of combination with Compound 1 (HSA and Bliss scores) [1]: synergistic effects

Cc1sc2c(c1C)C(c1ccc(Cl)cc1)=N[C@@H](CC(=O)Nc1ccc(O)cc1)c1nnc(C)n1-2 [birabresib, (S)-2-(4-(4-chlorophenyl)-2,3,9-trimethyl-6H-thieno[3,2-f][1,2,4]triazolo[4,3-a][1,4]diazepin-6-yl)-N-(4-hydroxyphenyl)acetamide]
effect on proliferation of combination with Compound 1 (HSA and Bliss scores) [1]: synergistic effects

CO[C@H]1C[C@@H]2CC[C@@H](C)[C@@](O)(O2)C(=O)C(=O)N2CCCC[C@H]2C(=O)O[C@H]([C@H](C)C[C@@H]2CC[C@@H](OCCO)[C@H](OC)C2)CC(=O)[C@H](C)/C=C(\C)[C@@H](O)[C@@H](OC)C(=O)[C@H](C)C[C@H](C)/C=C/C=C/C=C/1C [everolimus, 40-O-(2-hydroxyethyl)-rapamycin]
effect on proliferation of combination with Compound 1 (HSA and Bliss scores) [1]: synergistic effects

Cc1cnc(Nc2ccc(OCCN3CCCC3)cc2)nc1Nc1cccc(S(=O)(=O)NC(C)(C)C)c1 [fedratinib, N-tert-butyl-3-[(5-methyl-2-{4-[2-(pyrrolidin-1-yl)ethoxy]anilino}pyrimidin-4-yl)amino]benzenesulfonamide]
effect on proliferation of combination with Compound 1 (HSA and Bliss scores) [1]: synergistic effects

Cc1[nH]c2ccccc2c1CCNCc1ccc(/C=C/C(=O)NO)cc1 [panobinostat, (2E)-N-hydroxy-3-[4-({[2-(2-methyl-1H-indol-3-yl)ethyl]amino}methyl)phenyl]acrylamide]
effect on proliferation of combination with Compound 1 (HSA and Bliss scores) [1]: synergistic effects

CCN(c1cc(-c2ccc(CN3CCOCC3)cc2)cc(C(=O)NCc2c(C)cc(C)[nH]c2=O)c1C)C1CCOCC1 [tazemetostat, N-[(1,2-dihydro-4,6-dimethyl-2-oxo-3-pyridinyl)methyl]-5-[ethyl(tetrahydro-2H-pyran-4-yl)amino]-4-methyl-4′-(4-morpholinylmethyl)-[1,1′-biphenyl]-3-carboxamide, reference compound]
inhibition of tumor growth [2]: −50.5% | inhibition of tumor growth (TVR) [3]: 64.5% | inhibition of tumor growth (TVR) ([3]; listed as Tazemetostat): −45.9%

CC[C@]1(O)C[C@H]2CN(CCc3c([nH]c4ccccc34)[C@@](C(=O)OC)(c3cc4c(cc3OC)N(C=O)[C@H]3[C@@](O)(C(=O)OC)[C@H](OC(C)=O)[C@]5(CC)C=CCN6CC[C@]43[C@@H]65)C2)C1 [vincristine]
effect on proliferation of combination with Compound 1 (HSA and Bliss scores) [1]: synergistic effects
